{"source": "patent US6828144B2", "about": "“Method of observing vasculogenesis in vitro using cultured allantois” (Wisconsin Alumni Research Foundation, priority 1996, dated 2004)", "test_system": "headfold-stage allantoic explants", "conditions": "for formation / retention of vascular channels in explants: 5% FCS, feeding at 24 hour intervals, by 72 hours", "note": "Read-outs that look alike come from different tables or passages of the source.", "description": "At the onset of culture, or at varying times thereafter, known test compounds, such as Vascular Endothelial Growth Factor (VEGF, R & D Systems, Minneapolis, Minn.), are prepared according to the manufacturer's instructions and added to the cultures in concentrations recommended by the manufacturer (e.g., 1-20 ng VEGF/ml culture medium) or, in the case of unknown test compounds, in varying concentrations to determine the one that either inhibits or enhances vasculogenesis.\nTo test that possibility, recombinant VEGE (1-10 ng/ml culture medium) was added to explants at the start of culture in 5% FOS.\nFor survival and vascularization, allantoises were mouth-aspirated into a hand-pulled glass microcapillary (K. M. Downs and R. L. Gardner, supra, 1995; K. M. Downs, et al., supra, 1998) and either cultured in suspension as previously described (K. M. Downs, et al., supra, 1998) or placed individually (i) into wells of 24-well tissue-culture plates (Falcon 3047), (ii) onto glass cover slips (12 mm, Fisher) coated for 30 minutes in filtered (0.45 μm, cellulose acetate) poly-D-lysine (1 mg/ml double processed tissue culture water; Sigma) inserted into wells of 24-well tissue-culture plates and rinsed 34 times with sterile water, (iii) into sterile 8-well plastic chamber slides (Lab-Tek, Nunc), or (iv) into 8-well glass chamber slides some of which were coated in poly-D-lysine. Allantoises were cultured in 0.5 ml (24-well tissue-culture dishes or Falcon culture tubes (K. M. Downs and R. L. Gardner, supra, 1995) or 0.4 ml (8-well chamber slides) of culture medium (Dulbecco's modified Eagle's medium (DMEM) containing either equal parts of immediately-centrifuged and heat-inactivated rat serum as previously described (K. M. Downs and R. L. Gardner, supra, 1995) or 5, 10 and 20% heat-inactivated fetal calf serum (Gibco-BRL; frozen and thawed twice before using) for 24-72 hours at 37° C. in 6.2% CO2 in air. For culture longer than 24 hours, allantoises were given completely fresh medium at 24-hour intervals. In some experiments, erythrosin B (Fisher; 0.04% in phosphate-buffered saline (PBS); H. J. Phillips and J. E. Terryberry, Exp. Cell Res. 13:341-347, 1957) was diluted 1:1 in dissection medium to verify allantoic cell viability. Vascular Endothelial Growth Factor (R & D System,s Minneapolis, Minn.) was prepared according to the manufacturer's instructions and was added to culture medium containing 5% FCS in concentrations of 1-20 ng/ml.\nTo test that possibility, recombinant VEGF (1-10 ng/ml culture medium) was added to explants at the start of culture in 5% FCS."}
{"substance": "VEGF", "values": [{"measurement": "formation / retention of vascular channels in explants", "setting": "VEGF 1 ng/ml", "result": "devoid of such channels"}, {"measurement": "cell survival (cell retention)", "setting": "VEGF 2-10 ng/ml in 5% FCS, untreated explants in FCS alone 36%", "result": 78, "unit": "%"}, {"measurement": "formation / retention of vascular channels in explants", "setting": "VEGF 2-10 ng/ml, added at start of culture", "result": "retention of Flk-1 containing vascular channels and overlying VCAM-1 positive cells"}, {"measurement": "formation / retention of vascular channels in explants", "setting": "VEGF 2-10 ng/ml, added at start of culture, listed as Vascular Endothelial Growth Factor", "result": "formation of many vascular channels containing Flk-1 and Flt-1"}, {"measurement": "survival of angioblasts and morphogenesis into vessels", "setting": "explants cultured in low serum", "result": "promoted their survival and morphogenesis into vessels"}]}
